Test results taken from US20260098034A1, “2H-BENZOTRIAZOLE DERIVATIVE, PREPARATION METHOD THEREFOR, AND PHARMACEUTICAL COMPOSITION CONTAINING SAME” (ORXES THERAPEUTICS CO., LTD., priority 2022, published 2026).
“And” between values parts separate entries of the source, which are not always exact repeats. Identical values can stand only once.

Test system: Wistar rats
Experiment: PCA-induced Wistar rat premature ejaculation model
Format: in vivo
Conditions: for Actual number of ejaculations / Number of the seminal vesicle contractions / Seminal vesicle basal pressure / Seminal vesicle peak pressure / The first contraction latency period / The first ejaculation latency period: within 30 min after PCA induction, individual rats; for latency period of initial seminal vesicle contraction compared with the PE model group: FIG. 4
Procedure: Male Wistar rats with a weight of about 300 g were adapted for one week before the experiment was started. On the day of the experiment, the animals were anesthetized with a combination of 20 mg/kg of Zoletil 50 via i.p. and 8 mg/kg of xylazine via i.p., and the body temperature was maintained at 37° C. with a thermal insulation blanket. Exposed common carotid artery was intubated with PE50 to monitor real-time arterial pressure (i.e. systolic pressure, diastolic pressure, and mean arterial pressure). The seminal vesicles and cavernosal muscles of the animals were exposed. The stable baselines of the pressure of the seminal vesicle and the cavernosal myoelectricity were recorded for 10 min. Then the drug was administered through the tail vein for the dapoxetine group, and the tested compound was orally administered for the tested compound group (for the PE model group, the drug was replaced with a solvent). After 1 min, for inducing PE modeling, 5 mg/kg of PCA was injected intraperitoneally, and then the seminal vesicle pressure curve and the change of bulbospongiosus EMG were continuously recorded for 30 min.
• A. Within 30 min, the actual number of ejaculations of the animals and the latency period of the first ejaculation; • B. Within 30 min, the number of the seminal vesicle contractions, the latency period of the first contraction, the basal pressure and the peak pressure.
The experimental data were expressed by means±S.E.M., and statistical analysis was performed by GraphPad Prism 7.0 software. Single factor variance analysis (One-way ANOVA) was used for comparison between multiple groups, and Dunnett't-test was used for statistical analysis in Post hoc test. Student's t-test was used for comparison between two groups. P<0.05 was considered as a significant difference.

[1] = 0.125 mg/kg p.o. + PCA 5 mg/kg i.p.
[2] = 0.5 mg/kg p.o. + PCA 5 mg/kg i.p.
[3] = 2 mg/kg p.o. + PCA 5 mg/kg i.p.

Row | SMILES | Actual number of ejaculations [1] | Number of the seminal vesicle contractions [1] | Seminal vesicle basal pressure [1] | Seminal vesicle peak pressure [1] | The first contraction latency period [1] | The first ejaculation latency period [1] | Actual number of ejaculations [2] | Number of the seminal vesicle contractions [2] | Seminal vesicle basal pressure [2] | Seminal vesicle peak pressure [2] | The first contraction latency period [2] | The first ejaculation latency period [2] | Actual number of ejaculations [3] | Number of the seminal vesicle contractions [3] | Seminal vesicle basal pressure [3] | Seminal vesicle peak pressure [3] | The first contraction latency period [3] | The first ejaculation latency period [3] | also measured
1 | c1ccc2nn(CCCCN3CCN(c4noc5ccccc45)CC3)nc2c1 [Compound A001] | 8 and 9 and 11 (2×) and 10 | 10 and 11 and 12 and 13 and 16 | 6.69 mmHg and 7.04 mmHg and 7.28 mmHg and 6.91 mmHg and 7.78 mmHg | 17.17 mmHg and 21.45 mmHg and 22.67 mmHg and 23.39 mmHg and 20.58 mmHg | 784 s and 788 s and 605 s and 517 s and 839 s | 996 s and 726 s and 766 s and 823 s and 969 s | 0 (2×) and 2 (2×) and 3 | 0 (2×) and 5 and 4 and 6 | 3.88 mmHg and 4.19 mmHg and 5.77 mmHg and 5.08 mmHg and 5.68 mmHg | 4.89 mmHg and 5.09 mmHg and 11.06 mmHg and 16.57 mmHg and 14.89 mmHg | 1800 s (2×) and 1298 s and 1147 s and 1125 s | 1800 s (2×) and 1399 s and 1311 s and 1291 s | 2 and 0 (4×) | 4 and 0 and 1 (3×) | 6.88 mmHg and 4.68 mmHg and 4.38 mmHg and 4.92 mmHg and 3.98 mmHg | 18.65 mmHg and 6.99 mmHg and 6.07 mmHg and 7.32 mmHg and 6.05 mmHg | 968 s and 1800 s and 1687 s and 1774 s and 1629 s | 1055 s and 1800 s (4×) | –
2 | Fc1ccc2c(C3CCN(CCCn4nc5ccccc5n4)CC3)noc2c1 [Compound A002] | 2 (2×) and 6 and 3 and 5 | 5 (2×) and 6 (2×) and 3 | 5.88 mmHg and 6.10 mmHg and 6.02 mmHg and 4.66 mmHg and 3.97 mmHg | 12.33 mmHg and 16.17 mmHg and 18.07 mmHg and 12.06 mmHg and 9.88 mmHg | 1266 s and 833 s and 825 s and 1198 s and 1499 s | 1422 s and 933 s and 966 s and 1276 s and 1345 s | 2 and 3 and 1 and 0 (2×) | 3 and 4 and 2 and 0 (2×) | 5.76 mmHg and 5.88 mmHg and 5.79 mmHg and 3.67 mmHg and 3.87 mmHg | 12.54 mmHg and 11.66 mmHg and 7.05 mmHg and 4.27 mmHg and 5.11 mmHg | 1176 s and 1307 s and 1355 s and 1800 s (2×) | 1233 s and 1346 s and 1432 s and 1800 s (2×) | 0 | 2 and 0 (4×) | 4.15 mmHg and 4.12 mmHg and 4.85 mmHg and 4.11 mmHg and 3.93 mmHg | 8.87 mmHg and 6.08 mmHg and 5.09 mmHg and 4.77 mmHg and 5.03 mmHg | 1568 s and 1800 s (4×) | 1800 s | latency period of initial seminal vesicle contraction compared with the PE model group (high dose group (2.0 mg/kg p.o.)): significant increase; latency period of initial seminal vesicle contraction compared with the PE model group (low dose group (0.125 mg/kg p.o.), P>0.05): no statistically significant differences; latency period of initial seminal vesicle contraction compared with the PE model group (medium dose group (0.5 mg/kg p.o.)): significant increase
3 | Fc1ccc2c(C3CCN(CCCCn4nc5ccccc5n4)CC3)noc2c1 [Compound A003] | 0 (2×) and 4 (2×) and 5 | 3 (2×) and 8 (2×) and 7 | 3.97 mmHg and 3.78 mmHg and 5.98 mmHg and 5.59 mmHg and 5.17 mmHg | 4.08 mmHg and 4.25 mmHg and 16.58 mmHg and 14.17 mmHg and 18.06 mmHg | 1458 s and 1525 s and 707 s and 658 s and 735 s | 1800 s (2×) and 865 s and 778 s and 806 s | 6 (2×) and 2 and 0 (2×) | 9 (2×) and 5 and 0 (2×) | 5.88 mmHg and 6.03 mmHg and 5.19 mmHg and 3.9 mmHg and 4.2 mmHg | 18.97 mmHg and 20.11 mmHg and 12.84 mmHg and 4.09 mmHg and 4.76 mmHg | 778 s and 814 s and 1009 s and 1800 s (2×) | 845 s and 903 s and 1175 s and 1800 s (2×) | 0 | 1 and 0 (4×) | 4.65 mmHg and 4.17 mmHg and 4.55 mmHg and 4.62 mmHg and 3.92 mmHg | 8.13 mmHg and 5.24 mmHg and 4.9 mmHg and 4.89 mmHg and 4.86 mmHg | 1623 s and 1800 s (4×) | 1800 s | –
4 | c1ccc2nn(CCCN3CCN(c4nsc5ccccc45)CC3)nc2c1 [Compound A004] | 0 (2×) and 3 and 6 and 4 | 3 and 4 and 8 and 6 and 2 | 4.09 mmHg and 5.98 mmHg and 5.59 mmHg and 5.17 mmHg and 4.18 mmHg | 4.21 mmHg and 13.38 mmHg and 16.13 mmHg and 15.05 mmHg and 4.25 mmHg | 1400 s and 797 s and 757 s and 735 s and 1525 s | 1800 s (2×) and 865 s and 678 s and 806 s | 5 and 6 and 2 and 0 (2×) | 7 and 8 and 3 and 0 (2×) | 5.89 mmHg and 6.07 mmHg and 5.18 mmHg and 3.99 mmHg and 4.32 mmHg | 17.95 mmHg and 29.19 mmHg and 13.88 mmHg and 4.79 mmHg and 4.77 mmHg | 798 s and 819 s and 1009 s and 1800 s (2×) | 845 s and 903 s and 1175 s and 1800 s (2×) | 0 | 0 | 4.68 mmHg and 4.67 mmHg and 4.65 mmHg and 4.66 mmHg and 3.97 mmHg | 5.18 mmHg and 5.26 mmHg and 4.96 mmHg and 4.79 mmHg and 4.87 mmHg | 1800 s | 1800 s | –
5 | Fc1ccc2c(N3CCN(CCCn4nc5ccccc5n4)CC3)noc2c1 [Compound A005] | 0 (2×) and 4 (2×) and 5 | 2 and 3 and 6 and 8 and 7 | 3.99 mmHg and 3.98 mmHg and 5.98 mmHg and 5.59 mmHg and 5.18 mmHg | 4.09 mmHg and 4.29 mmHg and 16.56 mmHg and 17.17 mmHg and 18.08 mmHg | 1458 s and 1525 s and 707 s and 658 s and 738 s | 1800 s (2×) and 965 s and 878 s and 806 s | 5 (2×) and 3 and 0 (2×) | 6 and 7 and 4 and 0 (2×) | 5.89 mmHg and 6.05 mmHg and 5.15 mmHg and 3.93 mmHg and 4.22 mmHg | 18.99 mmHg and 19.11 mmHg and 12.85 mmHg and 4.09 mmHg and 4.76 mmHg | 778 s and 855 s and 1005 s and 1800 s (2×) | 845 s and 903 s and 1175 s and 1800 s (2×) | 0 | 0 (4×) and 1 | 4.16 mmHg and 4.27 mmHg and 4.65 mmHg and 4.32 mmHg and 3.93 mmHg | 5.26 mmHg and 5.22 mmHg and 7.15 mmHg and 4.83 mmHg and 4.89 mmHg | 1800 s (4×) and 1655 s | 1800 s | –
6 | Fc1ccc2c(N3CCN(CCCCn4nc5ccccc5n4)CC3)noc2c1 [Compound A006] | 0 and 1 and 4 (2×) and 5 | 2 (2×) and 7 (2×) and 8 | 3.93 mmHg and 3.88 mmHg and 5.98 mmHg and 5.79 mmHg and 5.18 mmHg | 4.11 mmHg and 4.21 mmHg and 16.58 mmHg and 15.19 mmHg and 17.07 mmHg | 1453 s and 1325 s and 707 s and 758 s and 738 s | 1800 s and 1330 s and 877 s and 798 s and 808 s | 6 and 4 and 2 and 0 (2×) | 8 and 6 and 3 and 0 (2×) | 5.86 mmHg and 6.06 mmHg and 5.12 mmHg and 3.91 mmHg and 4.25 mmHg | 18.66 mmHg and 20.61 mmHg and 12.89 mmHg and 4.19 mmHg and 4.79 mmHg | 899 s and 816 s and 1022 s and 1800 s (2×) | 855 s and 903 s and 1175 s and 1800 s (2×) | 0 | 0 (4×) and 1 | 4.66 mmHg and 4.16 mmHg and 4.65 mmHg and 4.67 mmHg and 3.98 mmHg | 5.13 mmHg and 5.28 mmHg and 4.97 mmHg and 4.79 mmHg and 7.87 mmHg | 1800 s (4×) and 1660 s | 1800 s | –
